Experimental data from PMC9454848, “BMS-986158, a Small Molecule Inhibitor of the Bromodomain and Extraterminal Domain Proteins, in Patients with Selected Advanced Solid Tumors: Results from a Phase 1/2a Trial” (Cancers, 2022).
Entries after “also recorded” stand apart in the source; their conditions may differ. Like-named read-outs stand apart in the source and are kept apart here.

Legend:
CCR2 mRNA = assay: Change from baseline in gene expression, CCR2; assay type: in vivo, human; details: patients; single dose up to 4.5 mg and schedule A
Method: Summary changes from baseline in the expression of BET-regulated genes were assessed in tumor tissues and blood collected at baseline and multiple on-treatment time points after BMS-986158 administration following the 3 dosing schedules. The study also assessed summary percent changes from baseline in expression of BET-regulated genes in peripheral blood and tumors (such as HEXIM1 and C-MYC). Tissue and peripheral blood samples (at baseline and on treatment) were collected for genomic, transcriptomic, and epigenetic analyses (by DNA or mRNA) to assess pharmacodynamic changes in BET-regulated genes. These samples were analyzed using whole-exome sequencing, real-time quantitative polymerase chain reaction, and RNA-sequencing methods.
All treated patients with available biomarker measurements at baseline and ≥1 time point were included in the biomarker analyses. Blood and tumor tissue samples were collected at baseline, during treatment, and at end of treatment for biomarker analysis. Markers of selected BET-regulated genes (e.g., HEXIM1) were analyzed with summary statistics for percent changes in expression from available matched pre- and on-treatment samples over time relative to baseline. Statistically significant changes in gene expression were determined using the Benjamini–Hochberg procedure to calculate an adjusted p value with an α level of 0.05.

[1] = Plasma pharmacokinetics after single dose (C1D1), LC-MS/MS; assay type: in vivo, human; details: for half-life / Vd/F / AUC(0-t) / Tmax / Cmax: human, plasma, oral
Method: At C1D1 in every dosing schedule cohort, a single dose was administered followed by 168 h (i.e., 7 days) of intensive PK sampling. Following cycle 1, the multiple-dose treatment schedules (described above) began in cycle 2. PK parameters were derived following single dose combined across all schedules and multiple doses at cycle 2 for each schedule. […] PK assessments were evaluated for BMS-986158 and its metabolite using plasma samples at regular intervals. Both the parent and metabolite samples were simultaneously analyzed using a validated liquid chromatography and tandem mass spectrometry assay.
All treated patients who received ≥1 dose of BMS-986158 were evaluated in the safety population. […] All treated patients with available and sufficient serum or plasma samples for the corresponding analytes were included in the PK analyses. […] ECG parameters were evaluated in a categorical analysis, and linear mixed-effects regression modeling was used to describe the quantitative relationship between ΔQTcF and time-matched serum concentrations of BMS-986158 or its metabolite at a single dose.

SMILES: Cc1nnn(C)c1-c1cnc2c3ccc(C(C)(C)O)cc3n([C@H](c3ccccc3)C3CCOCC3)c2c1 [BMS-986158]
- CCR2 mRNA expression change from baseline (CCR2 mRNA): transcriptional suppression; also recorded: dose-dependent expression changes
- Dose proportionality of plasma concentrations ([1]; 0.75–4.5 mg): dose proportional
- half-life ([1]; 0.75 mg, cohort Schedule A, 0.75 mg, n = 4, read-out: Effective T1/2, mean (SD) (converted)): 33.7 h
- Vd/F ([1]; 0.75 mg, cohort Schedule A, 0.75 mg, n = 4, read-out: Vz/F, GM (%CV)): 14.7 L
- AUC(0-t) ([1]; 0.75 mg, cohort Schedule A, 0.75 mg, n = 5, read-out: AUC(0–24), GM (%CV)): 1.03 µg·h/mL
- AUC(0-t) ([1]; 0.75 mg, cohort Schedule A, 0.75 mg, n = 5, read-out: AUC(0–T), GM (%CV)): 2.15 µg·h/mL
- Tmax ([1]; 0.75 mg, cohort Schedule A, 0.75 mg, n = 5, read-out: Tmax, median): 4 h
- Cmax ([1]; 0.75 mg, cohort Schedule A, n = 5): 0.0688 µg/mL
- AUC(0-t) ([1]; 1.25 mg, cohort Schedule A, 1.25 mg, n = 3, read-out: AUC(0–24), GM (%CV)): 2.31 µg·h/mL
- AUC(0-t) ([1]; 1.25 mg, cohort Schedule A, 1.25 mg, n = 3, read-out: AUC(0–T), GM (%CV)): 6.37 µg·h/mL
- half-life ([1]; 1.25 mg, cohort Schedule A, 1.25 mg, n = 3, read-out: Effective T1/2, mean (SD) (converted)): 48.7 h
- Tmax ([1]; 1.25 mg, cohort Schedule A, 1.25 mg, n = 3, read-out: Tmax, median): 1 h
- Vd/F ([1]; 1.25 mg, cohort Schedule A, 1.25 mg, n = 3, read-out: Vz/F, GM (%CV)): 12.5 L
- Cmax ([1]; 1.25 mg, cohort Schedule A, n = 3): 0.175 µg/mL
- half-life ([1]; 2 mg, cohort Schedule A, 2.0 mg, n = 4, read-out: Effective T1/2, mean (SD) (converted)): 41.4 h
- Vd/F ([1]; 2 mg, cohort Schedule A, 2.0 mg, n = 4, read-out: Vz/F, GM (%CV)): 14.6 L
- AUC(0-t) ([1]; 2 mg, cohort Schedule A, 2.0 mg, n = 9, read-out: AUC(0–24), GM (%CV)): 3.61 µg·h/mL
- AUC(0-t) ([1]; 2 mg, cohort Schedule A, 2.0 mg, n = 9, read-out: AUC(0–T), GM (%CV)): 8.56 µg·h/mL
- Tmax ([1]; 2 mg, cohort Schedule A, 2.0 mg, n = 9, read-out: Tmax, median): 2 h
- Cmax ([1]; 2 mg, cohort Schedule A, n = 9): 0.26 µg/mL
- AUC(0-t) ([1]; 2 mg, cohort Schedule B, 2.0 mg, n = 1, read-out: AUC(0–24), GM (%CV)): 2.36 µg·h/mL
- AUC(0-t) ([1]; 2 mg, cohort Schedule B, 2.0 mg, n = 1, read-out: AUC(0–T), GM (%CV)): 5.2 µg·h/mL
- half-life ([1]; 2 mg, cohort Schedule B, 2.0 mg, n = 1, read-out: Effective T1/2, mean (SD) (converted)): 44.2 h
- Tmax ([1]; 2 mg, cohort Schedule B, 2.0 mg, n = 1, read-out: Tmax, median): 1 h
- Vd/F ([1]; 2 mg, cohort Schedule B, 2.0 mg, n = 1, read-out: Vz/F, GM (%CV)): 23.2 L
- Cmax ([1]; 2 mg, cohort Schedule B, n = 1): 0.207 µg/mL
- AUC(0-t) ([1]; 2 mg, cohort Schedule C, 2.0 mg, n = 6, read-out: AUC(0–24), GM (%CV)): 3.66 µg·h/mL
- AUC(0-t) ([1]; 2 mg, cohort Schedule C, 2.0 mg, n = 6, read-out: AUC(0–T), GM (%CV)): 10.9 µg·h/mL
- half-life ([1]; 2 mg, cohort Schedule C, 2.0 mg, n = 6, read-out: Effective T1/2, mean (SD) (converted)): 64.6 h
- Tmax ([1]; 2 mg, cohort Schedule C, 2.0 mg, n = 6, read-out: Tmax, median): 1 h
- Vd/F ([1]; 2 mg, cohort Schedule C, 2.0 mg, n = 6, read-out: Vz/F, GM (%CV)): 13.9 L
- Cmax ([1]; 2 mg, cohort Schedule C, n = 6): 0.295 µg/mL
- half-life ([1]; 3 mg, cohort Schedule A, 3.0 mg, n = 7, read-out: Effective T1/2, mean (SD) (converted)): 33.3 h
- Vd/F ([1]; 3 mg, cohort Schedule A, 3.0 mg, n = 7, read-out: Vz/F, GM (%CV)): 12.8 L
- AUC(0-t) ([1]; 3 mg, cohort Schedule A, 3.0 mg, n = 10, read-out: AUC(0–24), GM (%CV)): 4.94 µg·h/mL
- AUC(0-t) ([1]; 3 mg, cohort Schedule A, 3.0 mg, n = 10, read-out: AUC(0–T), GM (%CV)): 10.5 µg·h/mL
- Tmax ([1]; 3 mg, cohort Schedule A, 3.0 mg, n = 10, read-out: Tmax, median): 2 h
- Cmax ([1]; 3 mg, cohort Schedule A, n = 10): 0.328 µg/mL
- half-life ([1]; 3 mg, cohort Schedule B, 3.0 mg, n = 1, read-out: Effective T1/2, mean (SD) (converted)): 54 h
- Vd/F ([1]; 3 mg, cohort Schedule B, 3.0 mg, n = 1, read-out: Vz/F, GM (%CV)): 15.3 L
- AUC(0-t) ([1]; 3 mg, cohort Schedule B, 3.0 mg, n = 4, read-out: AUC(0–24), GM (%CV)): 6.92 µg·h/mL
- AUC(0-t) ([1]; 3 mg, cohort Schedule B, 3.0 mg, n = 4, read-out: AUC(0–T), GM (%CV)): 28.9 µg·h/mL
- Tmax ([1]; 3 mg, cohort Schedule B, 3.0 mg, n = 4, read-out: Tmax, median): 1.03 h
- Cmax ([1]; 3 mg, cohort Schedule B, n = 4): 0.481 µg/mL
- half-life ([1]; 3 mg, cohort Schedule C, 3.0 mg, n = 10, read-out: Effective T1/2, mean (SD) (converted)): 48.2 h
- Vd/F ([1]; 3 mg, cohort Schedule C, 3.0 mg, n = 10, read-out: Vz/F, GM (%CV)): 15.6 L
- AUC(0-t) ([1]; 3 mg, cohort Schedule C, 3.0 mg, n = 11, read-out: AUC(0–24), GM (%CV)): 4.47 µg·h/mL
- AUC(0-t) ([1]; 3 mg, cohort Schedule C, 3.0 mg, n = 11, read-out: AUC(0–T), GM (%CV)): 11.5 µg·h/mL
- Tmax ([1]; 3 mg, cohort Schedule C, 3.0 mg, n = 11, read-out: Tmax, median): 1 h
- Cmax ([1]; 3 mg, cohort Schedule C, n = 11): 0.37 µg/mL
- half-life ([1]; 4.5 mg, cohort Schedule A, 4.5 mg, n = 9, read-out: Effective T1/2, mean (SD) (converted)): 48.3 h
- Vd/F ([1]; 4.5 mg, cohort Schedule A, 4.5 mg, n = 9, read-out: Vz/F, GM (%CV)): 15.7 L
- AUC(0-t) ([1]; 4.5 mg, cohort Schedule A, 4.5 mg, n = 10, read-out: AUC(0–24), GM (%CV)): 6.79 µg·h/mL
- AUC(0-t) ([1]; 4.5 mg, cohort Schedule A, 4.5 mg, n = 10, read-out: AUC(0–T), GM (%CV)): 19.1 µg·h/mL
- Tmax ([1]; 4.5 mg, cohort Schedule A, 4.5 mg, n = 10, read-out: Tmax, median): 2.04 h
- Cmax ([1]; 4.5 mg, cohort Schedule A, n = 10): 0.478 µg/mL
- half-life ([1]; 4.5 mg, cohort Schedule C, 4.5 mg, n = 5, read-out: Effective T1/2, mean (SD) (converted)): 35.7 h
- Vd/F ([1]; 4.5 mg, cohort Schedule C, 4.5 mg, n = 5, read-out: Vz/F, GM (%CV)): 11.6 L
- AUC(0-t) ([1]; 4.5 mg, cohort Schedule C, 4.5 mg, n = 7, read-out: AUC(0–24), GM (%CV)): 7.42 µg·h/mL
- AUC(0-t) ([1]; 4.5 mg, cohort Schedule C, 4.5 mg, n = 7, read-out: AUC(0–T), GM (%CV)): 17.2 µg·h/mL
- Tmax ([1]; 4.5 mg, cohort Schedule C, 4.5 mg, n = 7, read-out: Tmax, median): 2.02 h
- Cmax ([1]; 4.5 mg, cohort Schedule C, n = 7): 0.567 µg/mL
- Tmax ([1]; 0.75–4.5 mg, read-out: Time to peak plasma concentration (median Tmax)): 1 to 4 h
